The text below walks through data of publication PMC9538480, “Rutin bioconjugates as potential nutraceutical prodrugs: An in vitro and in ovo toxicological screening” (Frontiers in Pharmacology, 2022).

≈ marks a conversion by molar mass, not a printed value.

The term viability denotes the share of living cells, or the viability signal relative to a control.

The subject of data set [1] is HepaRG cells. It is filed as cell-based, human. The note with it: 100 µM, 24 h, Hoechst 33342. On the procedure: (§1) The potential toxicity of 100 μM RUT, OA, LA, RUT-O, and RUT-L at nuclear level was tested by applying the Hoechst 33342 staining assay protocol according to the manufacturer’s (Thermo Fisher Scientific, Inc., Waltham, MA, United States) recommendations. In brief, H9c2(2-1), HepaRG, and HaCaT cells were seeded in 12-well plates (10^5 cells/1.5 ml/well) and treated with the test compounds for 24 h. After the stimulation period, the media was removed, and the staining solution diluted 1:2000 in PBS was added (500 µl/well). The plates were incubated for 10 min at room temperature, protected from light. Finally, the staining solution was washed with PBS and the pictures were taken using Cytation 1 (BioTek Instruments Inc., Winooski, VT, United States) and analyzed by the means of Gen5™ Microplate Data Collection and Analysis Software (BioTek Instruments Inc., Winooski, VT, United States). Staurosporine (STP) 5 µM was selected as positive control for apoptosis.

Data set [2] concerns HaCaT cells. It is filed as cell-based, human. The note with it: 100 µM, 24 h, Hoechst 33342. The method, then:
as §1

A short description of data set [3]: in vitro. It is filed as cell-based, human. The note with it: human. The method, then:
(§2) To evaluate the in vitro effect of rutin esters (REs) on cells’ viability, the MTT technique was applied following a 24 h treatment of H9c2(2-1), HepaRG, and HaCaT cells with RUT-O and RUT-L (1, 10, 25, 50, and 100 µM). The parent compounds (PCs)—RUT, OA, and LA were also tested. DMSO was used as solvent for all test compounds (RUT, OA, LA, RUT-O, and RUT-L). The impact of DMSO at tested concentrations (1, 10, 25, 50, and 100 µM) was also assessed in vitro. At the end of the treatment, fresh media (100 µl) and the MTT reagent (10 µl) were added in each well, and the plates were incubated for 3 h at 37°C. The final steps were as follows: addition of the solubilization solution (100 µl/well), incubation of the plates at room temperature for 30 min, protected from light, and absorbance measurement at two wavelengths (570 and 630 nm) using Cytation 5 (BioTek Instruments Inc., Winooski, VT, United States). The results were expressed as percentage (%) of viable cells normalized to control cells (unstimulated cells).

Data set [4] relates to chorioallantoic membrane. The data set can be described thus: HET-CAM in ovo irritant potential. It is filed as in vivo, Gallus domesticus. The note with it: 5 min after application. The method, then:
To perform a toxicological screening and to verify the irritant potential of the RUT-O and RUT-L were used chicken eggs (Gallus domesticus). Specifically, the eggs were prepared as follows: 1) after being washed and disinfected with 70% ethanol (v/v), the eggs were placed in an incubator in a horizontal posture; 2) on the fourth day of incubation, a small hole was made through which a volume of approximately 7–8 ml of albumen was extracted in order to facilitate the detachment of the chorioallantoic membrane from the inner shell of the egg; 3) on the fifth day of incubation, a window was cut in the upper part of the egg to allow the visualization of the blood vessels, which was then covered with adhesive tape and the eggs were placed in the incubator until the day of the beginning of the experiment. Using the Hen’s Egg Test—Chorioallantoic Membrane (HET-CAM) assay, the potential in ovo toxicity of the samples was evaluated. […] [Kis et al., 2022]). […] In order to observe any vascular effects, a stereomicroscope (Discovery 8 Stereomicroscope Zeiss, Göttingen, and Germany) was used, and images were taken with a Zeiss Axio CAM 105 color camera before and 5 min after the application of the samples. The same experimental protocol was applied for the parent compounds—RUT, OA, and LA.

Data set [5] has as its system trophoblast-like Swan71 cells. The arrangement: method as in Shrestha et al., 2019. The note with it: 24 h of treatment, ref Shrestha et al., 2019; cited from earlier work.
The subject of data set [6] is HUVEC endothelial cells. The note with it: ref Lu et al., 2010; cited from earlier work.
The nature of data set [7]: in vitro. It is filed as cell-based, rat. The note with it: rat. On the procedure: as §2
Data set [8] concerns H9c2(2-1) cells. The data set can be described thus: in vitro. It is filed as cell-based, rat. The note with it: H9c2(2-1), 24 h. The method, then:
as §2

Data set [9] has as its system H9c2(2-1), HaCaT, and HepaRG cells. It is filed as cell-based. The note with it: 100 µM, 24 h; for impact on cells' adherence or confluency: compared to control cells. The method, then: To verify the impact of PCs (RUT, OA and LA) and REs (RUT-O and RUT-L) on the morphology and confluence of H9c2(2-1), HaCaT, and HepaRG cells, a microscopic examination was performed. The cells were observed under bright field illumination and photographed at the end of the 24 h treatment period using Cytation 1 (BioTek Instruments Inc., Winooski, VT, United States). The photographs were processed using the Gen5™ Microplate Data Collection and Analysis Software (BioTek Instruments Inc., Winooski, VT, United States).

The test system of data set [10] is H9c2(2-1) cells. It is filed as cell-based, rat. The note with it: 100 µM, 24 h, Hoechst 33342. On the procedure:
as §1

Data set [11] has as its system HaCaT. More on the design: method as in Carullo et al., 2019. The note with it: 1 μM; ref Carullo et al., 2019; cited from earlier work.
In data set [12] the test system is HaCaT cells. The arrangement: method as in Deepika et al., 2019. The note with it: ref Deepika et al., 2019; cited from earlier work.
Data set [13] relates to HaCaT cells. It is filed as cell-based, human. The note with it: 1-100 µM, 24 h. On the procedure: as §2
Data set [14] concerns HaCaT cells. The data set can be described thus: Wound healing (scratch) assay. It is filed as cell-based, human. The note with it: 25 µM, 24 h. The method, then:
(§3) The influence of RUT-O and RUT-L on the migration of cells was assessed by performing the wound healing (scratch) assay. In brief, the cells (10^5 cells/ml/well) were cultured in 24-well plates (Corning Costar), and an automatic scratch was made in each well by using the AutoScratchTM Wound Making Tool provided by BioTek® Instruments Inc. (Winooski, VT, United States). The cells were further treated with the flavonoid esters at the concentration of 25 μM for 24 h, and representative images of the wound area were taken at 0 and 24 h using Cytation 1 (BioTek® Instruments Inc., Winooski, VT, United States). The wound widths were measured using Gen5 TM Microplate Data Collection and Analysis Software (BioTek® Instruments Inc., Winooski, VT, United States). The effects on cell migration were quantified by calculating the wound healing rates (%) using a formula presented in our previous studies ([[…] et al., 2020]).

The test system of data set [15] is H9c2(2-1) cells. Briefly: Wound healing (scratch) assay. It is filed as cell-based, rat. The note with it: 25 µM, 24 h, control 45.71%. On the procedure: as §3
Where [16] appears, read: lowest concentrations (1 and 10 µM).

For `CCCCC/C=C\C/C=C\CCCCCCCC(=O)O` [LA, linoleic acid], the nuclear morphology changes entry in data set [1], in data set [2] and in data set [10] was “no significant nuclear alterations” each time. The viability at 24 h, 100 µM is 86.9% in data set [3] and 84.2% in data set [7]. The “vascular irritation signs (hemorrhage, lysis, coagulation) in words” value in data set [4] is “No signs of vascular irritation”. Further, the “decrease in the viability compared to vehicle control” value in data set [5] is 10%. Further, the “concentrations suppressing HUVEC endothelial cells growth” value in [6] is given as “higher than 300 µM”. The molecule also displayed a viability at 24 h, 50 µM in data set [7] of 87.2%. Also, the “effect on cell viability” value in data set [8] (setting [16]) is “stimulatory effect”. In addition, in [9] (bright field), the “round cells floating in the culture medium” value is “several round cells floating in the culture medium”. In [9], the “impact on cells' adherence or confluency” value was “no negative impact”.

Turning to `CCCCCCCC/C=C\CCCCCCCC(=O)Oc1c(-c2ccc(O)c(O)c2)oc2cc(O)cc(O)c2c1=O` [Quercetin-3-oleate], in [11], the “stimulation of HaCaT wound healing” value is “up to 51%”.

`C[C@@H]1O[C@@H](OC[C@H]2O[C@@H](Oc3c(-c4ccc(O)c(O)c4)oc4cc(O)cc(O)c4c3=O)[C@H](O)[C@@H](O)[C@@H]2O)[C@H](O)[C@H](O)[C@H]1O` [RUT, Rutin]: the “IC50, inhibitory effect on HaCaT cells' growth” value in data set [12] was 60 µg/mL (≈ 98.3 µM). The nuclear morphology changes entry in data set [1], in [2] and in data set [10] was “no significant nuclear alterations” throughout. In addition, the “vascular irritation signs (hemorrhage, lysis, coagulation) in words” value in [4] was “No signs of vascular irritation”. In addition, the “effect on cell viability” value is reported as “not affected” in data set [13]; “did not decrease cells viability” in [8] (highest concentrations (50 and 100 µM)); “stimulatory effect” in data set [8] (setting [16]). In data set [14], the “effect on wound regeneration” value is listed as “no impact on wound regeneration”. Also, the “impact on cells' adherence or confluency” value in data set [9] was “no negative impact”. Also, the wound healing rate in data set [15] is on record as 37.73%.
